Measurements taken from patent US8084457B2, “Pharmaceutically active 4,6-disubstituted aminopyrimidine derivatives as modulators of protein kinases” (Lead Discovery Center GmbH, priority 2003, dated 2011).

What was measured:
[1] = molecular target: T1, CDK9/Cyclin T1 (Homo sapiens, UniProt P50750); assay: Kinase assay using CDK9/Cyclin T1; type: biochemical; details: read-out: CDK9 (activity range)
T1 construct: made in house; host or cells: HEK293 cells, recombinant adenovirus
From the text: Cloning of CDK9 and Cyclin T1:
Both cDNA fragments were cloned by PCR into pDONR201 vectors using the gateway recombination system (Invitrogen) according to the manufacturer's recommendations. The fragments were subcloned into a gateway-adapted shuttle vector (pPM7) for production of recombinant adenovirus. All plasmids were verified by restriction digests and sequencing analysis.
Expression and Purification of CDK9/Cyclin T1 Proteins:
Expression and purification was in principle performed as described by Cotten et al. (M. Cotten et al., Nucleic acids research, 2003, 31(28), 128).
Kinase Assay Using CDK9/Cyclin T1:
Kinase assays were performed in principle as described by Cotten et al. (M. Cotten et al., Nucleic acids research, 2003, 31(28), 128).

[2] = molecular target: T2, CDK2/CyclinA (Homo sapiens, UniProt P24941); assay: Kinase assay determining CDK2/CyclinA activity; type: biochemical; details: read-out: CDK2 (activity range)
T2 construct: purchased Proqinase
Experimental: Kinase Assays Determining CDK2/CyclinA and CDK5/p35 Activity:
Kinase assays were performed as described by the manufacturers recommendations (Proqinase for CDK2/CyclinA and Upsate for CDK5/p35).

T1 sequence (P50750 whole entry): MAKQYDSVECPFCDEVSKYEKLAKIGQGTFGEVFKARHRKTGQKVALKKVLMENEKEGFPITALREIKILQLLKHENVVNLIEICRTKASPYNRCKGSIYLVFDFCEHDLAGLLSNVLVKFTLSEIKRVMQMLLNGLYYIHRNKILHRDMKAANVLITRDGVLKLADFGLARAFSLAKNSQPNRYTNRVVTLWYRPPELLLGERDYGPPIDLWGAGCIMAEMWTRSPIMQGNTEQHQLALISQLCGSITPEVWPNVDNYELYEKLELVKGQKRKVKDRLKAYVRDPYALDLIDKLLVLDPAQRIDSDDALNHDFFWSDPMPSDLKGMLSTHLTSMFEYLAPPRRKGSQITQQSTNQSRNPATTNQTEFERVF
T1 sequence (O60563 whole entry partner): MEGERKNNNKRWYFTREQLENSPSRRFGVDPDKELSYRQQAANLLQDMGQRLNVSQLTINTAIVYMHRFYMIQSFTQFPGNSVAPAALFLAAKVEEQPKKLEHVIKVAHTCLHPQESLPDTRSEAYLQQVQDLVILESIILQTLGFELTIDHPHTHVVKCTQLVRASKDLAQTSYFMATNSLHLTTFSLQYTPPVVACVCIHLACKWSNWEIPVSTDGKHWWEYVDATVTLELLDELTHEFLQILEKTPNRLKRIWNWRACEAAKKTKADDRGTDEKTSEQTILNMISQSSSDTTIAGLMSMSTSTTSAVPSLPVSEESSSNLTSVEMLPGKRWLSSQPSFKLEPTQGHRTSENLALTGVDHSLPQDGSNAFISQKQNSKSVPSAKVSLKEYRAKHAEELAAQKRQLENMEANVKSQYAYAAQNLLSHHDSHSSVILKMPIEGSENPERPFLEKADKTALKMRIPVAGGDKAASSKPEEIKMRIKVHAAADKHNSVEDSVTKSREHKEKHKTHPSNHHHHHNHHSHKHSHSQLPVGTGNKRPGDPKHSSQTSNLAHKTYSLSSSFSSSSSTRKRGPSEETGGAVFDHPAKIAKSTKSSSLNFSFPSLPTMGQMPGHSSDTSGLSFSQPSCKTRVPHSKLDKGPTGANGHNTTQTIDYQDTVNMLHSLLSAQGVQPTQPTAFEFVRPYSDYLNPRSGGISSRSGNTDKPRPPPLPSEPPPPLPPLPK

SMILES | IC50 [1] [µM] | IC50 [2] [µM]
O=C(Nc1ccc(Nc2cc(-c3ccccc3CO)ncn2)cc1)[C@@H]1CCCCN1 [(170)] | 1 to 10 | –
Nc1cccc(-c2cc(Nc3ccc(S(N)(=O)=O)cc3)ncn2)c1 [(117)] | 1 to 10 | 0.001 to 1
Nc1ccc(C(=O)Nc2ccc(Nc3cc(-c4cccc(N)c4)ncn3)cc2)cc1 [(21)] | 1 to 10 | 1 to 10
COc1ccccc1-c1cc(Nc2cccc(NC(=O)C(C)(C)C)c2)ncn1 [(122)] | 1 to 10 | 1 to 10
CC(=O)Nc1ccc(-c2cc(Nc3ccc(NC(=O)[C@@H]4CCCCN4)cc3)ncn2)cc1 [(177)] | 1 to 10 | –
COc1ccccc1-c1cc(Nc2ccc(NC(=O)c3nc4ccccc4s3)cc2)ncn1 [(84)] | 1 to 10 | 10 to 250
CCCS(=O)(=O)Nc1ccc(Nc2ncnc(-c3ccccc3OC)c2C)cc1 [(160)] | 10 to 250 | –
CC(=O)c1ccc(-c2cc(Nc3ccc(NC(=O)[C@@H]4CCCCN4)cc3)ncn2)s1 [(191)] | 1 to 10 | –
COc1ccccc1-c1cc(Nc2ccc(NC(=O)C34CC5CC(CC(C5)C3)C4)cc2)ncn1 [(61)] | 1 to 10 | 10 to 250
COc1ccccc1-c1cc(Nc2cccc(C(N)=O)c2)ncn1 [(115)] | 0.001 to 1 | 0.001 to 1
COc1ccccc1-c1cc(N(C)c2ccc(N)cc2)ncn1 [(26)] | 1 to 10 | 1 to 10
COc1ccccc1-c1cc(Nc2ccc(NC(=O)c3ccc4ccccc4n3)cc2)ncn1 [(98)] | 0.001 to 1 | 10 to 250
CC(C)(C)C(=O)Nc1ccc(Nc2cc(-c3cccnc3)ncn2)cc1 [(73)] | – | 10 to 250
COc1ccccc1-c1cc(Nc2ccc(NC(=O)C3CCCCC3)cc2)ncn1 [(41)] | 1 to 10 | 10 to 250
COc1ccccc1-c1cc(Nc2ccc(NC(=O)c3ccc4ccccc4c3O)cc2)ncn1 [(139)] | 0.001 to 1 | 1 to 10
COc1ccccc1-c1cc(Nc2ccc(-c3nc4ccccc4o3)cc2)ncn1 [(62)] | 10 to 250 | 10 to 250
COc1ccccc1-c1cc(Nc2ccc(NC(=O)C(c3ccccc3)N(C)C)cc2)ncn1 (stereo not shown) [(101)] | 0.001 to 1 | 1 to 10
CCOc1ccccc1-c1cc(Nc2ccc(NC(=O)c3ccc(N)cc3)cc2)ncn1 [(55)] | 0.001 to 1 | 1 to 10
Cc1ccc(Nc2cc(-c3ccccc3OC(C)C)ncn2)cc1NS(C)(=O)=O [(158)] | 0.001 to 1 | 0.001 to 1
CS(=O)(=O)Nc1cccc(-c2cc(Nc3ccc(NC(=O)[C@@H]4CCCCN4)cc3)ncn2)c1 [(178)] | 0.001 to 1 | –
COc1ccccc1-c1cc(Nc2ccc(C(=O)Nc3ccc(O)cc3)cc2)ncn1 [(136)] | 0.001 to 1 | 1 to 10
Cc1ccc(S(=O)(=O)Nc2ccc(Nc3cc(-c4ccc(O)cc4)ncn3)cc2)cc1 [(11)] | 0.001 to 1 | 0.001 to 1

SMILES | IC50 [1] [µM] | IC50 [2] [µM]
CC(C)(C)C(=O)Nc1ccc(Nc2cc(-c3ccccc3F)ncn2)cc1 [(127)] | 10 to 250 | 10 to 250
COc1ccccc1-c1cc(Nc2ccc(NC(=O)NC(C)(C)C)cc2)ncn1 [(113)] | 0.001 to 1 | 1 to 10
COc1ccc(-c2cc(Nc3ccc(C(=O)N[C@@H]4CCCC[C@H]4N)cc3)ncn2)cc1 (racemic) [(161)] | 0.001 to 1 | 1 to 10
Nc1ccc(C(=O)Nc2ccc(Nc3cc(-c4ccncc4)ncn3)cc2)cc1 [(67)] | 10 to 250 | 10 to 250
COc1ncc(-c2cc(Nc3ccc(C(=O)N[C@@H]4CCCC[C@H]4N)cc3)ncn2)cn1 (racemic) [(213)] | 10 to 250 | –
Oc1ccccc1-c1cc(NCCc2ccncc2)ncn1 [(94)] | 1 to 10 | 10 to 250
Nc1ccc(C(=O)Nc2ccc(Nc3cc(NCC4CCCCC4)ncn3)cc2)cc1 [(43)] | 1 to 10 | 10 to 250
COc1ccccc1-c1cc(Nc2ccc(NC(=O)c3ccc(N)cc3)cc2)nc(N)n1 [(97)] | 1 to 10 | 10 to 250
COc1ccccc1-c1cc(Nc2ccc(NC(=O)[C@@H]3CCCCN3C(=O)OC(C)(C)C)cc2)ncn1 [(29)] | 0.001 to 1 | 1 to 10
CS(=O)(=O)Nc1cc(Nc2cc(-c3cccc(N)c3)ncn2)ccc1OCc1ccccc1 [(120)] | 1 to 10 | 1 to 10
COc1ccccc1-c1cc(Nc2ccc(NC(=O)C3(NC(=O)OC(C)(C)C)CCCC3)cc2)ncn1 [(47)] | 0.001 to 1 | 10 to 250
COC(=O)CN(c1ccc(Nc2cc(-c3ccc(O)cc3)ncn2)cc1)S(=O)(=O)c1ccc(C)cc1 [(27)] | 1 to 10 | 0.001 to 1
Nc1cccc(-c2cc(Nc3ccc(C(=O)NC4CCCCC4N)cc3)ncn2)c1 (stereo not shown) [(206)] | 1 to 10 | –
COC(=O)c1ccc(Nc2cc(-c3ccccc3OC)ncn2)cc1 [(15)] | 0.001 to 1 | 0.001 to 1
COc1ccc(-c2cc(Nc3ccc(NC(=O)[C@@H]4CCCCN4)cc3)ncn2)cc1 [(167)] | 1 to 10 | –
CN(C)Cc1cccc(-c2cc(Nc3ccc(NC(=O)[C@@H]4CCCCN4)cc3)ncn2)c1 [(211)] | 1 to 10 | –
COc1ccccc1-c1cc(Nc2ccc(NC(=O)c3n[nH]c4ccccc34)cc2)ncn1 [(141)] | 1 to 10 | –
COCc1ccccc1-c1cc(Nc2ccc(C)c(NS(C)(=O)=O)c2)ncn1 [(197)] | 1 to 10 | –
COCc1ccccc1-c1cc(Nc2ccc(C(=O)NC3CCCCC3N)cc2)ncn1 (stereo not shown) [(210)] | 1 to 10 | –
CC(=O)c1cccc(-c2cc(Nc3ccc(NC(=O)[C@@H]4CCCCN4)cc3)ncn2)c1 [(179)] | 10 to 250 | –
COCc1cccc(-c2cc(Nc3ccc(NC(=O)[C@@H]4CCCCN4)cc3)ncn2)c1 [(203)] | 1 to 10 | –
O=C(Nc1ccc(Nc2cc(-c3ccc(OCc4ccccc4)cc3)ncn2)cc1)[C@@H]1CCCCN1 [(173)] | 10 to 250 | –

SMILES | IC50 [1] [µM] | IC50 [2] [µM]
N[C@@H]1CCCC[C@H]1NC(=O)c1ccc(Nc2cc(-c3cccc(O)c3)ncn2)cc1 (racemic) [(194)] | 1 to 10 | –
Cc1ccc(Nc2cc(-c3ccccc3CO)ncn2)cc1NS(C)(=O)=O [(166)] | 1 to 10 | –
COc1ccc(-c2ncnc(Nc3ccc(NC(=O)c4ccc(N)cc4)cc3)c2C)cc1 [(200)] | 10 to 250 | –
CN(C)c1cccc(-c2cc(Nc3ccc(NC(=O)[C@@H]4CCCCN4)cc3)ncn2)c1 [(169)] | 1 to 10 | –
COc1ccc(-c2cc(Nc3ccc(NC(=O)[C@@H]4CCCCN4)cc3)ncn2)cn1 [(172)] | 1 to 10 | –
N#Cc1cccc(-c2cc(Nc3ccc(C(=O)NC4CCCCC4N)cc3)ncn2)c1 (stereo not shown) [(209)] | 1 to 10 | –
NC1CCCCC1NC(=O)c1ccc(Nc2cc(-c3ccc(OCc4ccccc4)cc3)ncn2)cc1 (stereo not shown) [(208)] | 10 to 250 | –
CC(C)(C)C(=O)Nc1ccc(Nc2cc(-c3cccc(C(=O)O)c3)ncn2)cc1 [(75)] | 10 to 250 | –
COc1ccccc1-c1cc(Nc2ccc(N)cc2)nc(C)n1 [(204)] | 10 to 250 | –
NC1CCCCC1NC(=O)c1ccc(Nc2cc(-c3cnc4ccccc4c3)ncn2)cc1 (stereo not shown) [(212)] | 10 to 250 | –
COc1ccc(-c2cc(Nc3ccc(N)cc3)nc(C)n2)cc1 [(205)] | 10 to 250 | –
CC(C)(C)C(=O)Nc1ccc(Nc2cc(-c3ccccc3-c3ccccc3)ncn2)cc1 [(132)] | 10 to 250 | –
COC(=O)c1cccc(-c2cc(Nc3ccc(C(=O)N[C@@H]4CCCC[C@H]4N)cc3)ncn2)c1 (racemic) [(201)] | 1 to 10 | –
CN1CCN(c2cc(Nc3ccc(NC(=O)C(C)(C)C)cc3)ncn2)CC1 [(78)] | – | 10 to 250
CC(=O)Nc1cccc(-c2cc(Nc3ccc(C(=O)NC4CCCCC4N)cc3)ncn2)c1 (stereo not shown) [(207)] | 1 to 10 | –
CC(C)(C)C(=O)Nc1ccc(Nc2cc(Cl)ncn2)cc1 [(72)] | – | 10 to 250
O=C(Nc1ccc(Nc2cc(-c3cccc(CO)c3)ncn2)cc1)[C@@H]1CCCCN1 [(193)] | 1 to 10 | –
COc1ccccc1-c1cc(Nc2ccc(NC(=O)Nc3ccc4c(c3)OCO4)cc2)ncn1 [(111)] | – | 10 to 250
Cc1ccc(Nc2cc(-c3ccc(CO)cc3)ncn2)cc1NS(C)(=O)=O [(175)] | 1 to 10 | –
O=C(NC1CCCC1)c1ccc(-c2cc(Nc3ccc(NC(=O)[C@@H]4CCCCN4)cc3)ncn2)cc1 [(180)] | 1 to 10 | –
COc1ccccc1-c1cc(Nc2ccc(NC(=O)c3cc4ccccc4oc3=O)cc2)ncn1 [(129)] | 10 to 250 | –
COc1ccccc1-c1ncnc(Nc2ccc(NC(=O)c3ccc(N)cc3)cc2)c1C [(149)] | 10 to 250 | –
